Source: US11357230B2, “Herbicidal amides” (FMC Corporation, priority 2017, dated 2022)

Key:
Format in all cases: in vivo
[1] = tested on: ryegrass, Italian (Italian ryegrass, Lolium multiflorum); assay: Test A postemergence, Italian ryegrass; conditions: approximately 10 d
Excerpt: (§1) Seeds of plant species selected from barnyardgrass (Echinochloa crus-galli), kochia (Kochia scoparia), ragweed (common ragweed, Ambrosia elatior), ryegrass, Italian (Italian ryegrass, Lolium multiflorum), foxtail, green (green foxtail, Setaria viridis), and pigweed (Amaranthus retroflexus) were planted into a blend of loam soil and sand and treated preemergence with a directed soil spray using test chemicals formulated in a non-phytotoxic solvent mixture which included a surfactant. At the same time, plants selected from these weed species and also wheat (Triticum aestivum), corn (Zea mays), blackgrass (Alopecurus myosuroides), and galium (catchweed bedstraw, Galium aparine) were planted in pots containing the same blend of loam soil and sand and treated with postemergence applications of test chemicals formulated in the same manner. Plants ranged in height from 2 to 10 cm and were in the one- to two-leaf stage for the postemergence treatment. Treated plants and untreated controls were maintained in a greenhouse for approximately 10 d, after which time all treated plants were compared to untreated controls and visually evaluated for injury. Plant response ratings, summarized in Table A, are based on a 0 to 100 scale where 0 is no effect and 100 is complete control. A dash (-) response means no test result.

Foxtail, Giant [2] = assay: Test A preemergence, giant foxtail; conditions: approximately 10 d
[3] = tested on: blackgrass (Alopecurus myosuroides); assay: Test A postemergence, blackgrass; conditions: approximately 10 d
Excerpt: as §1

kochia (Kochia scoparia) [4] = assay: Test A preemergence, kochia; conditions: approximately 10 d
Excerpt: as §1

[5] = tested on: barnyardgrass (Echinochloa crus-galli); assay: Test A postemergence, barnyardgrass; conditions: approximately 10 d
Excerpt: as §1

[6] = tested on: ragweed (common ragweed, Ambrosia elatior); assay: Test A postemergence, ragweed; conditions: approximately 10 d
Excerpt: as §1

[7] = tested on: ragweed (common ragweed, Ambrosia elatior); assay: Test A preemergence, ragweed; conditions: approximately 10 d
Excerpt: as §1

kochia (Kochia scoparia) [8] = assay: Test A postemergence, kochia; conditions: approximately 10 d
Excerpt: as §1

corn (Zea mays) = assay: Test A postemergence, corn; conditions: approximately 10 d
Excerpt: as §1

[9] = tested on: galium (catchweed bedstraw, Galium aparine); assay: Test A postemergence, galium; conditions: approximately 10 d
Excerpt: as §1

[10] = tested on: wheat (Triticum aestivum); assay: Test A postemergence, wheat; conditions: approximately 10 d
Excerpt: as §1

[11] = tested on: ducksalad (Heteranthera limosa); assay: Test B flooded paddy test, ducksalad; conditions: 250 g ai/ha, Flood (paddy water), 13 to 15 d
Method: (§2) Plant species in the flooded paddy test selected from rice (Oryza sativa), sedge, umbrella (small-flower umbrella sedge, Cyperus difformis), ducksalad (Heteranthera limosa), and barnyardgrass (Echinochloa crus-galli) were grown to the 2-leaf stage for testing. At time of treatment, test pots were flooded to 3 cm above the soil surface, treated by application of test compounds directly to the paddy water, and then maintained at that water depth for the duration of the test. Treated plants and controls were maintained in a greenhouse for 13 to 15 d, after which time all species were compared to controls and visually evaluated. Plant response ratings, summarized in Table B, are based on a scale of 0 to 100 where 0 is no effect and 100 is complete control. A dash (-) response means no test result.

[12] = tested on: barnyardgrass (Echinochloa crus-galli); assay: Test B flooded paddy test, barnyardgrass; conditions: 250 g ai/ha, Flood (paddy water), 13 to 15 d
Method: as §2

rice (Oryza sativa) = assay: Test B flooded paddy test, rice; conditions: 250 g ai/ha, Flood (paddy water), 13 to 15 d
Method: as §2

[13] = tested on: barnyardgrass (Echinochloa crus-galli); assay: Test A preemergence, barnyardgrass; conditions: approximately 10 d
Excerpt: as §1

[14] = tested on: sedge, umbrella (small-flower umbrella sedge, Cyperus difformis); assay: Test B flooded paddy test, umbrella sedge; conditions: 250 g ai/ha, Flood (paddy water), 13 to 15 d
Method: as §2

[15] = tested on: pigweed (Amaranthus retroflexus); assay: Test A postemergence, pigweed; conditions: approximately 10 d
Excerpt: as §1

[16] = tested on: ryegrass, Italian (Italian ryegrass, Lolium multiflorum); assay: Test A preemergence, Italian ryegrass; conditions: approximately 10 d
Excerpt: as §1

[17] = tested on: pigweed (Amaranthus retroflexus); assay: Test A preemergence, pigweed; conditions: approximately 10 d
Excerpt: as §1

Foxtail, Giant [18] = assay: Test A postemergence, giant foxtail; conditions: approximately 10 d

SMILES | Plant response rating (0 to 100 scale, 0 is no effect, 100 is complete control) ([1]; 31 g ai/ha) | Plant response rating (0 to 100 scale, 0 is no effect, 100 is complete control) ([1]; 125 g ai/ha) | Plant response rating (0 to 100 scale, 0 is no effect, 100 is complete control) (Foxtail, Giant [2]; 31 g ai/ha) | Plant response rating (0 to 100 scale, 0 is no effect, 100 is complete control) (Foxtail, Giant [2]; 125 g ai/ha) | Plant response rating (0 to 100 scale, 0 is no effect, 100 is complete control) ([3]; 31 g ai/ha) | Plant response rating (0 to 100 scale, 0 is no effect, 100 is complete control) ([3]; 125 g ai/ha) | Plant response rating (0 to 100 scale, 0 is no effect, 100 is complete control) (kochia (Kochia scoparia) [4]; 31 g ai/ha) | Plant response rating (0 to 100 scale, 0 is no effect, 100 is complete control) (kochia (Kochia scoparia) [4]; 125 g ai/ha) | Plant response rating (0 to 100 scale, 0 is no effect, 100 is complete control) ([5]; 31 g ai/ha) | Plant response rating (0 to 100 scale, 0 is no effect, 100 is complete control) ([5]; 125 g ai/ha) | Plant response rating (0 to 100 scale, 0 is no effect, 100 is complete control) ([6]; 31 g ai/ha) | Plant response rating (0 to 100 scale, 0 is no effect, 100 is complete control) ([6]; 125 g ai/ha) | Plant response rating (0 to 100 scale, 0 is no effect, 100 is complete control) ([7]; 31 g ai/ha) | Plant response rating (0 to 100 scale, 0 is no effect, 100 is complete control) ([7]; 125 g ai/ha) | Plant response rating (0 to 100 scale, 0 is no effect, 100 is complete control) (kochia (Kochia scoparia) [8]; 31 g ai/ha) | Plant response rating (0 to 100 scale, 0 is no effect, 100 is complete control) (kochia (Kochia scoparia) [8]; 125 g ai/ha) | Plant response rating (0 to 100 scale, 0 is no effect, 100 is complete control) (corn (Zea mays); 31 g ai/ha) | Plant response rating (0 to 100 scale, 0 is no effect, 100 is complete control) (corn (Zea mays); 125 g ai/ha) | Plant response rating (0 to 100 scale, 0 is no effect, 100 is complete control) ([9]; 31 g ai/ha) | Plant response rating (0 to 100 scale, 0 is no effect, 100 is complete control) ([9]; 125 g ai/ha) | also measured
CNN=C1[C@H](C(=O)Nc2cccc(F)c2F)[C@@H](c2ccc(C(F)(F)F)cc2)CN1C (relative stereo) [Compound 3] | 0 | 40 | 70 | 90 | 40 | 80 | 0 | 30 | 60 | 70 | 0 | 50 | 0 | 0 | 20 | 60 | 20 | 30 | 60 | 80 | Plant response rating (0 to 100 scale, 0 is no effect, 100 is complete control) ([10]; 31 g ai/ha): 0; Plant response rating (0 to 100 scale, 0 is no effect, 100 is complete control) ([10]; 125 g ai/ha): 30; Plant response rating (scale of 0 to 100, 0 is no effect, 100 is complete control) [11]: 100; Plant response rating (scale of 0 to 100, 0 is no effect, 100 is complete control) [12]: 70; Plant response rating (scale of 0 to 100, 0 is no effect, 100 is complete control) (rice (Oryza sativa)): 0; Plant response rating (0 to 100 scale, 0 is no effect, 100 is complete control) ([13]; 31 g ai/ha): 30; Plant response rating (0 to 100 scale, 0 is no effect, 100 is complete control) ([13]; 125 g ai/ha): 90; Plant response rating (scale of 0 to 100, 0 is no effect, 100 is complete control) [14]: 0; Plant response rating (0 to 100 scale, 0 is no effect, 100 is complete control) ([15]; 31 g ai/ha): 0; Plant response rating (0 to 100 scale, 0 is no effect, 100 is complete control) ([15]; 125 g ai/ha): 90; Plant response rating (0 to 100 scale, 0 is no effect, 100 is complete control) ([16]; 31 g ai/ha): 0; Plant response rating (0 to 100 scale, 0 is no effect, 100 is complete control) ([16]; 125 g ai/ha): 90; Plant response rating (0 to 100 scale, 0 is no effect, 100 is complete control) ([17]; 31 g ai/ha): 0; Plant response rating (0 to 100 scale, 0 is no effect, 100 is complete control) ([17]; 125 g ai/ha): 70; Plant response rating (0 to 100 scale, 0 is no effect, 100 is complete control) (Foxtail, Giant [18]; 31 g ai/ha): 40; Plant response rating (0 to 100 scale, 0 is no effect, 100 is complete control) (Foxtail, Giant [18]; 125 g ai/ha): 70
CN(C)N=C1[C@H](C(=O)Nc2cccc(F)c2F)[C@@H](c2ccc(C(F)(F)F)cc2)CN1C (relative stereo) [Compound 4] | 0 | 20 | 50 | 90 | 30 | 50 | 0 | 30 | 0 | 60 | 0 | 30 | 0 | 0 | 0 | 40 | 0 | 20 | 60 | 70 | Plant response rating (0 to 100 scale, 0 is no effect, 100 is complete control) ([10]; 31 g ai/ha): 0; Plant response rating (0 to 100 scale, 0 is no effect, 100 is complete control) ([10]; 125 g ai/ha): 20; Plant response rating (scale of 0 to 100, 0 is no effect, 100 is complete control) [11]: 75; Plant response rating (scale of 0 to 100, 0 is no effect, 100 is complete control) [12]: 55; Plant response rating (scale of 0 to 100, 0 is no effect, 100 is complete control) (rice (Oryza sativa)): 0; Plant response rating (0 to 100 scale, 0 is no effect, 100 is complete control) ([13]; 31 g ai/ha): 50; Plant response rating (0 to 100 scale, 0 is no effect, 100 is complete control) ([13]; 125 g ai/ha): 90; Plant response rating (scale of 0 to 100, 0 is no effect, 100 is complete control) [14]: 0; Plant response rating (0 to 100 scale, 0 is no effect, 100 is complete control) ([15]; 31 g ai/ha): 0; Plant response rating (0 to 100 scale, 0 is no effect, 100 is complete control) ([15]; 125 g ai/ha): 70; Plant response rating (0 to 100 scale, 0 is no effect, 100 is complete control) ([16]; 31 g ai/ha): 0; Plant response rating (0 to 100 scale, 0 is no effect, 100 is complete control) ([16]; 125 g ai/ha): 10; Plant response rating (0 to 100 scale, 0 is no effect, 100 is complete control) ([17]; 31 g ai/ha): 0; Plant response rating (0 to 100 scale, 0 is no effect, 100 is complete control) ([17]; 125 g ai/ha): 60; Plant response rating (0 to 100 scale, 0 is no effect, 100 is complete control) (Foxtail, Giant [18]; 31 g ai/ha): 0; Plant response rating (0 to 100 scale, 0 is no effect, 100 is complete control) (Foxtail, Giant [18]; 125 g ai/ha): 80
CC(=O)NN=C1[C@H](C(=O)Nc2cccc(F)c2F)[C@@H](c2ccc(C(F)(F)F)cc2)CN1C (relative stereo) [Compound 5] | 10 | 80 | 90 | 90 | 60 | 80 | 10 | 90 | 60 | 80 | 0 | 0 | 0 | 70 | 20 | 30 | 0 | 40 | 70 | 80 | Plant response rating (0 to 100 scale, 0 is no effect, 100 is complete control) ([10]; 31 g ai/ha): 0; Plant response rating (0 to 100 scale, 0 is no effect, 100 is complete control) ([10]; 125 g ai/ha): 50; Plant response rating (scale of 0 to 100, 0 is no effect, 100 is complete control) [11]: 65; Plant response rating (scale of 0 to 100, 0 is no effect, 100 is complete control) [12]: 45; Plant response rating (scale of 0 to 100, 0 is no effect, 100 is complete control) (rice (Oryza sativa)): 0; Plant response rating (0 to 100 scale, 0 is no effect, 100 is complete control) ([13]; 31 g ai/ha): 90; Plant response rating (0 to 100 scale, 0 is no effect, 100 is complete control) ([13]; 125 g ai/ha): 90; Plant response rating (scale of 0 to 100, 0 is no effect, 100 is complete control) [14]: 0; Plant response rating (0 to 100 scale, 0 is no effect, 100 is complete control) ([15]; 31 g ai/ha): 30; Plant response rating (0 to 100 scale, 0 is no effect, 100 is complete control) ([15]; 125 g ai/ha): 80; Plant response rating (0 to 100 scale, 0 is no effect, 100 is complete control) ([16]; 31 g ai/ha): 20; Plant response rating (0 to 100 scale, 0 is no effect, 100 is complete control) ([16]; 125 g ai/ha): 90; Plant response rating (0 to 100 scale, 0 is no effect, 100 is complete control) ([17]; 31 g ai/ha): 70; Plant response rating (0 to 100 scale, 0 is no effect, 100 is complete control) ([17]; 125 g ai/ha): 80; Plant response rating (0 to 100 scale, 0 is no effect, 100 is complete control) (Foxtail, Giant [18]; 31 g ai/ha): 70; Plant response rating (0 to 100 scale, 0 is no effect, 100 is complete control) (Foxtail, Giant [18]; 125 g ai/ha): 80
